# In doi:10.1101/2024.10.17.618876v1 (biorxiv, 2024):
# pKd: −log10 of the molar value.
# Biological target: T1, human lysozyme (HL) (Homo sapiens, UniProt P61626)
# T1 sequence (P61626 19-148): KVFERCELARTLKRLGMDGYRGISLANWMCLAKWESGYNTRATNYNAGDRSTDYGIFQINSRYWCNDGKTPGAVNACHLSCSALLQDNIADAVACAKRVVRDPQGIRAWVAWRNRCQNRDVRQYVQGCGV
# Experiment: isothermal titration calorimetry
# Type: binding
structure (smiles),measurement,value
N=C(N)c1ccccc1 [benzamidine],pKd,5.81
